Source: patent publication US9550785B2, “Pyrrolopyrimidines as therapeutic agents for the treatment of diseases” (GlaxoSmithKline LLC, priority 2012, dated 2017)
Where a name gives a salt, the structure may show the parent alone.

Tests used:
TNF-α = assay: Induction of TNF-α using fresh human whole blood (WB); format: cell-based; conditions: three donors, overnight incubation, cytokine released as percentage of 2 μM resiquimod control, read-out: mean pEC50 for TNF-α (converted)
Method: (§1) Assay for the Induction of Interferon-α and TNF-α Using Fresh Human Whole Blood (WB)
(§2) Compounds were prepared at 100× required concentration in DMSO in flat-bottom microtitre plates at a volume of 1.5 μL. Columns 1-10 contained a 1 in 4 serial dilution of the test compound. Included on each plate was a serial dilution of the TLR7/8 agonist resiquimod as a standard and Column 11 contained 1.5 μl of 200 μM resiquimod (giving a 2 μM final concentration, used to define the approximate maximal response to resiquimod). Each compound was assayed in duplicate for each donor.
(§3) Blood samples from three human donors were collected into sodium heparin (10 U/ml). 150 μl of whole Blood was dispensed into Col 1 to 11 of assay plates containing 1.5 μl of test compound or standard in DMSO. Plates were placed in an incubator overnight (37° C., 95% air, 5% CO2). Following the overnight incubation, plates were removed from the incubator & mixed on an orbital shaker for approximately 1 minute. 100 μl of 0.9% saline was added to each well and the plates mixed again on an orbital shaker. Plates were then centrifuged (2500 rpm, 10 mins), after which a sample of plasma was removed using a Biomek FX and assayed for both IFN-α and TNF-α using the MSD (Mesoscale Discovery) electrochemiluminescence assay platform. The IFN-α assay was carried out similarly to that described above. The TNF-α assay was carried out as per kit instructions (Cat No K111BHB).
(§4) Cytokine released was expressed as a percentage of the 2 μM resiquimod control (column 11). This percentage was plotted against compound concentration and the pEC50 for the response determined by non-linear least squares curve fitting. For the IFN-α responses, generally a 4 parameter logistic model was selected. For the TNF-α responses where a clear maximum response was obtained (i.e. a well defined plateau in the response was observed) then a 4 parameter model was generally used. […]

Interferon-α = assay: Induction of Interferon-α using fresh human whole blood (WB); format: cell-based; conditions: three donors, overnight incubation, cytokine released as percentage of 2 μM resiquimod control, read-out: mean pEC50 for INF-α (converted)
Method: as §1, §2, §3, §4

For `CCCCc1nc(N)c2[nH]cc(CCCC3CCNCC3)c2n1` [Example 1, 2-Butyl-7-(3-(piperidin-4-yl)propyl)-5H-pyrrolo[3,2-d]pyrimidin-4-amine formate], the EC50 (TNF-α) was ≤ 10 µM and the EC50 (Interferon-α) was ≤ 0.398 µM.
`CCCCc1nc(N)c2[nH]cc(CCCC3CCN(C(C)C)CC3)c2n1` [Example 2, 2-Butyl-7-(3-(1-isopropylpiperidin-4-yl)propyl)-5H-pyrrolo[3,2-d]pyrimidin-4-amine] was tested, and the EC50 (TNF-α) was ≤ 10 µM and the EC50 (Interferon-α) was ≤ 0.398 µM.
`CCCCc1nc(N)c2[nH]cc(CCC3CCNCC3)c2n1` [Example 3, 2-Butyl-7-(2-(piperidin-4-yl)ethyl)-5H-pyrrolo[3,2-d]pyrimidin-4-amine] was tested, and the EC50 (TNF-α) was ≤ 10 µM and the EC50 (Interferon-α) was ≤ 0.398 µM.
